Data published in publication PMC9848300, “Discovery of novel enasidenib analogues targeting inhibition of mutant isocitrate dehydrogenase 2 as antileukaemic agents” (Journal of Enzyme Inhibition and Medicinal Chemistry, 2023).

Columns and labels:
CCRF-CEM = test: NCI 60 antitumor screening (single dose / five doses); assay type: cell-based; settings: Homo sapiens; CCRF-CEM (leukaemia), single dose 10 μM; read-out: Growth inhibition percentage (GI %)
HL-60(TB) = test: as above; assay type: cell-based; settings: Homo sapiens; HL-60(TB) (leukaemia), single dose 10 μM; read-out: Growth inhibition percentage (GI %)
MOLT-4 = test: as above; assay type: cell-based; settings: Homo sapiens; MOLT-4 (leukaemia), single dose 10 μM; read-out: Growth inhibition percentage (GI %)
RPMI-8226 = test: as above; assay type: cell-based; settings: Homo sapiens; RPMI-8226 (leukaemia), single dose 10 μM; read-out: Growth inhibition percentage (GI %)
A549/ATCC = test: NCI 60 antitumor screening (single dose); assay type: cell-based; settings: Homo sapiens; A549/ATCC (non-small cell lung cancer), single dose 10 μM; read-out: Growth inhibition percentage (GI %)
Method in brief: (§1)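 Read-out is percent growth (G%) of treated cancer cells relative to untreated, converted to percent inhibition as 100 − G%. Each compound was applied once at 10 μM across 60 human tumour lines under the NCI protocol.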

CAKI-1 = test: NCI 60 antitumor screening (single dose); assay type: cell-based; settings: Homo sapiens; CAKI-1 (renal cancer), single dose 10 μM; read-out: Growth inhibition percentage (GI %)
Method in brief: as §1

M14 = test: NCI 60 antitumor screening (single dose); assay type: cell-based; settings: Homo sapiens; M14 (melanoma), single dose 10 μM; read-out: Growth inhibition percentage (GI %)
Method in brief: as §1

MCF7 = test: NCI 60 antitumor screening (single dose); assay type: cell-based; settings: Homo sapiens; MCF7 (breast cancer), single dose 10 μM; read-out: Growth inhibition percentage (GI %)
Method in brief: as §1

NCI-H23 = test: NCI 60 antitumor screening (single dose); assay type: cell-based; settings: Homo sapiens; NCI-H23 (non-small cell lung cancer), single dose 10 μM; read-out: Growth inhibition percentage (GI %)
Method in brief: (§2)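 Percent growth inhibition, calculated as 100 minus percent growth (G%) of treated cells, following a single 10 μM exposure in the NCI 60 human cancer cell screen; triplicate runs.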

NCI-H322M = test: NCI 60 antitumor screening (single dose); assay type: cell-based; settings: Homo sapiens; NCI-H322M (non-small cell lung cancer), single dose 10 μM; read-out: Growth inhibition percentage (GI %)
Method in brief: as §1

NCI-H522 = test: NCI 60 antitumor screening (single dose); assay type: cell-based; settings: Homo sapiens; NCI-H522 (non-small cell lung cancer), single dose 10 μM; read-out: Growth inhibition percentage (GI %)
Method in brief: as §2

SF-268 = test: NCI 60 antitumor screening (single dose); assay type: cell-based; settings: Homo sapiens; SF-268 (CNS cancer), single dose 10 μM; read-out: Growth inhibition percentage (GI %)
Method in brief: as §2

HCT-15 = test: NCI 60 antitumor screening (single dose / five doses); assay type: cell-based; settings: Homo sapiens; HCT-15 (colon cancer), single dose 10 μM; read-out: Growth inhibition percentage (GI %)
HT29 = test: as above; assay type: cell-based, human; settings: Homo sapiens, HT-29; HT29 (colon cancer), single dose 10 μM; read-out: Growth inhibition percentage (GI %)
SW-620 = test: as above; assay type: cell-based, human; settings: Homo sapiens; SW-620 (colon cancer), single dose 10 μM; read-out: Growth inhibition percentage (GI %)
SF-539 = test: as above; assay type: cell-based; settings: Homo sapiens; SF-539 (CNS cancer), single dose 10 μM; read-out: Growth inhibition percentage (GI %)
SNB-75 = test: as above; assay type: cell-based; settings: Homo sapiens; SNB-75 (CNS cancer), single dose 10 μM; read-out: Growth inhibition percentage (GI %)
MALME-3M = test: as above; assay type: cell-based; settings: Homo sapiens; MALME-3M (melanoma), single dose 10 μM; read-out: Growth inhibition percentage (GI %)
MDA-MB-435 = test: as above; assay type: cell-based; settings: Homo sapiens; MDA-MB-435 (melanoma), single dose 10 μM; read-out: Growth inhibition percentage (GI %)
SK-MEL-5 = test: as above; assay type: cell-based; settings: Homo sapiens; SK-MEL-5 (melanoma), single dose 10 μM; read-out: Growth inhibition percentage (GI %)
UACC-62 = test: as above; assay type: cell-based; settings: Homo sapiens; UACC-62 (melanoma), single dose 10 μM; read-out: Growth inhibition percentage (GI %)
786-0 = test: as above; assay type: cell-based; settings: Homo sapiens, 786-0, 786-0 (renal cancer), single dose 10 μM; read-out: Growth inhibition percentage (GI %)
A498 = test: as above; assay type: cell-based; settings: Homo sapiens; A498 (renal cancer), single dose 10 μM; read-out: Growth inhibition percentage (GI %)
RXF 393 = test: as above; assay type: cell-based; settings: Homo sapiens; RXF 393 (renal cancer), single dose 10 μM; read-out: Growth inhibition percentage (GI %)
UO-31 = test: as above; assay type: cell-based; settings: Homo sapiens; UO-31 (renal cancer), single dose 10 μM; read-out: Growth inhibition percentage (GI %)
MDA-MB-231/ATCC = test: as above; assay type: cell-based; settings: Homo sapiens; MDA-MB-231/ATCC (breast cancer), single dose 10 μM; read-out: Growth inhibition percentage (GI %)
BT-549 = test: as above; assay type: cell-based; settings: Homo sapiens; BT-549 (breast cancer), single dose 10 μM; read-out: Growth inhibition percentage (GI %)
[1] = test system: 60 human subpanel cancer cell lines; test: NCI 60 antitumor screening, mean over the panel (single dose); assay type: cell-based; settings: mean over 60 cancer cell lines, single dose 10 μM
Method in brief: as §2

Row | Structure (SMILES) | inhibition at 10 µM (CCRF-CEM) | inhibition at 10 µM (HL-60(TB)) | inhibition at 10 µM (MOLT-4) | inhibition at 10 µM (RPMI-8226) | inhibition at 10 µM (A549/ATCC) | inhibition at 10 µM (CAKI-1) | inhibition at 10 µM (M14) | inhibition at 10 µM (MCF7) | inhibition at 10 µM (NCI-H23) | inhibition at 10 µM (NCI-H322M) | inhibition at 10 µM (NCI-H522) | inhibition at 10 µM (SF-268) | inhibition at 10 µM (HCT-15) | inhibition at 10 µM (HT29) | inhibition at 10 µM (SW-620) | inhibition at 10 µM (SF-539) | inhibition at 10 µM (SNB-75) | inhibition at 10 µM (MALME-3M) | inhibition at 10 µM (MDA-MB-435) | inhibition at 10 µM (SK-MEL-5) | other results
1 | Oc1ccc(/C=N/Nc2nc(N/N=C/c3ccc(O)c(O)c3)nc(N3CCCCC3)n2)cc1O [compound 7j, 4-[(1e)-(2-{4-[(E)-2-[(3,4-Dihydroxyphenyl)methylidene]hydrazin-1-yl]-6-(piperidin-1-yl)-1,3,5-triazin-2-yl}hydrazin-1-ylidene)methyl]benzene-1,2-diol] | 9.46% | -1.96% | 6.3% | -7.6% | -0.07% | 13.4% | -3.18% | 4.27% | 0.5% | -2.3% | 6.61% | -2.56% | 16.1% | -13.4% | 6.35% | 1.16% | -4% | 6.88% | -1.68% | 4.85% | inhibition at 10 µM (UACC-62): 3.56%; inhibition at 10 µM (786-0): -1.22%; inhibition at 10 µM (A498): -2.84%; inhibition at 10 µM (RXF 393): -17.8%; inhibition at 10 µM (UO-31): 15.3%; inhibition at 10 µM (MDA-MB-231/ATCC): 12.8%; inhibition at 10 µM (BT-549): 1.47%; Mean GI % [1]: 1.89%
2 | C(=N\Nc1nc(N/N=C/c2ccc3c(c2)OCO3)nc(N2CCCCC2)n1)/c1ccc2c(c1)OCO2 [compound 7k, 2,4-Bis[(E)-2-(2H-1,3-Benzodioxol-5-ylmethylidene)hydrazin-1-yl]-6-(piperidin-1-yl)-1,3,5-triazine] | 79.6% | 39.6% | 43.7% | 43.8% | 8.56% | 1.07% | 2.72% | 45.2% | -1.44% | 1.53% | 8.07% | -0.46% | 66.2% | 61.8% | 17.6% | 12.4% | -13.1% | -20.2% | 1.52% | 3.15% | inhibition at 10 µM (UACC-62): -2.37%; inhibition at 10 µM (786-0): 13.4%; inhibition at 10 µM (A498): 48.3%; inhibition at 10 µM (RXF 393): 20.3%; inhibition at 10 µM (UO-31): 25.6%; inhibition at 10 µM (MDA-MB-231/ATCC): 9.3%; inhibition at 10 µM (BT-549): -21.9%; Mean GI % [1]: 14.53%
